Data reported in ChEMBL document CHEMBL1201862, “PubChem BioAssay data set” (2004).
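Tested at 5 concentrations; 48 h exposure; 96-well plates; endpoints linearly interpolated, else capped at highest concentration. The concentration for 50% growth inhibition is given as GI50.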 The source made the active and inactive calls. Rule as the data show it: active = GI50 up to about 1.1 µM and inactive = higher.

Legend:
Assay in all cases: inhibition of tumour cell growth, NCI panel, 48 h
BT-549 = system: BT-549
CCRF-CEM = system: CCRF-CEM
HCT-116 = system: HCT-116
HT-29 = system: HT-29
Hs-578T = system: Hs-578T
KM12 = system: KM12
MCF7 = system: MCF7
MDA-MB-435 = system: MDA-MB-435
NCI-H226 = system: NCI-H226
NCI/ADR-RES = system: NCI/ADR-RES
OVCAR-3 = system: OVCAR-3
OVCAR-8 = system: OVCAR-8
SF-539 = system: SF-539
SK-MEL-28 = system: SK-MEL-28
SK-MEL-2 = system: SK-MEL-2
SK-MEL-5 = system: SK-MEL-5
SN12C = system: SN12C
SNB-19 = system: SNB-19
T47D = system: T47D
UACC-257 = system: UACC-257

SMILES	GI50 (BT-549)	GI50 (CCRF-CEM)	GI50 (HCT-116)	GI50 (HT-29)	GI50 (Hs-578T)	GI50 (KM12)	GI50 (MCF7)	GI50 (MDA-MB-435)	GI50 (NCI-H226)	GI50 (NCI/ADR-RES)	GI50 (OVCAR-3)	GI50 (OVCAR-8)	GI50 (SF-539)	GI50 (SK-MEL-28)	GI50 (SK-MEL-2)	GI50 (SK-MEL-5)	GI50 (SN12C)	GI50 (SNB-19)	GI50 (T47D)	GI50 (UACC-257)
O=C1Nc2ccccc2S/C1=C\c1ccccc1C(F)(F)F	59.7 µM (inactive)	2.24 µM (inactive)	> 100 µM (inactive)	> 100 µM (inactive)	51.9 µM (inactive)	> 100 µM (inactive)	98.6 µM (inactive)	> 100 µM (inactive)	> 100 µM (inactive)	> 100 µM (inactive)	> 100 µM (inactive)	72.6 µM (inactive)	72.8 µM (inactive)	> 100 µM (inactive)	> 100 µM (inactive)	> 100 µM (inactive)	> 100 µM (inactive)	> 100 µM (inactive)	> 100 µM (inactive)	> 100 µM (inactive)
CC(=O)C(C)CCOC1(C)OCCC1C (centres undefined)	> 100 µM (inactive)	> 100 µM (inactive)	> 100 µM (inactive)	> 100 µM (inactive)	> 100 µM (inactive)	> 100 µM (inactive)	> 100 µM (inactive)	> 100 µM (inactive)	> 100 µM (inactive)	> 100 µM (inactive)	> 100 µM (inactive)	> 100 µM (inactive)	> 100 µM (inactive)	> 100 µM (inactive)	> 100 µM (inactive)	> 100 µM (inactive)	> 100 µM (inactive)	> 100 µM (inactive)	> 100 µM (inactive)	> 100 µM (inactive)
COc1cccc2cc(C(=O)Nc3ccccc3)c(=N)oc12	> 100 µM (inactive)	> 21.8 µM (inactive)	24.3 µM (inactive)	> 100 µM (inactive)	10.4 µM (inactive)	> 29.6 µM (inactive)	5.93 µM (inactive)	> 100 µM (inactive)	> 100 µM (inactive)	> 100 µM (inactive)	> 100 µM (inactive)	> 46.6 µM (inactive)	> 100 µM (inactive)	> 100 µM (inactive)	> 100 µM (inactive)	> 81.3 µM (inactive)	> 100 µM (inactive)	> 75.9 µM (inactive)	6.01 µM (inactive)	> 100 µM (inactive)
COCCOC1=CC(=O)c2c(O)ccc(O)c2C1=O	1.77 µM (inactive)	4.3 µM (inactive)	0.285 µM (active)	0.585 µM (active)	4.04 µM (inactive)	1.93 µM (inactive)	0.275 µM (active)	0.179 µM (active)	2.23 µM (inactive)	2.44 µM (inactive)	0.662 µM (active)	1.73 µM (inactive)	1.73 µM (inactive)	1.52 µM (inactive)	1.27 µM (inactive)	0.163 µM (active)	1.63 µM (inactive)	2.3 µM (inactive)	2.36 µM (inactive)	0.203 µM (active)
Cc1cccc(-c2cc(O)c3c(C)cc(C)nc3n2)c1	3.73 µM (inactive)	3.45 µM (inactive)	2.04 µM (inactive)	2.12 µM (inactive)	2.52 µM (inactive)	0.745 µM (active)	0.962 µM (active)	0.321 µM (active)	3.59 µM (inactive)	1.65 µM (inactive)	1.43 µM (inactive)	5.58 µM (inactive)	2.75 µM (inactive)	13.1 µM (inactive)	2.73 µM (inactive)	1.05 µM (active)	8.91 µM (inactive)	4.38 µM (inactive)	3.96 µM (inactive)	7.87 µM (inactive)
CCOC(=O)CC1(Cc2ccc(OCc3ccccc3)cc2)C(=O)OC(c2ccccc2)N1C(=O)c1ccccc1 (centres undefined)	> 100 µM (inactive)	> 100 µM (inactive)	> 100 µM (inactive)	> 100 µM (inactive)	> 100 µM (inactive)	> 100 µM (inactive)	> 100 µM (inactive)	> 100 µM (inactive)	> 100 µM (inactive)	> 100 µM (inactive)	> 100 µM (inactive)	> 100 µM (inactive)	> 100 µM (inactive)	> 100 µM (inactive)	> 100 µM (inactive)	> 100 µM (inactive)	> 100 µM (inactive)	> 100 µM (inactive)	> 100 µM (inactive)	> 100 µM (inactive)
Cn1c2ccccc2c2[nH]c3ccccc3c(=O)c21	> 100 µM (inactive)	> 100 µM (inactive)	53.3 µM (inactive)	> 100 µM (inactive)	> 100 µM (inactive)	> 100 µM (inactive)	> 100 µM (inactive)	> 100 µM (inactive)	> 100 µM (inactive)	> 100 µM (inactive)	> 100 µM (inactive)	> 100 µM (inactive)	> 100 µM (inactive)	> 100 µM (inactive)	> 100 µM (inactive)	46.2 µM (inactive)	> 100 µM (inactive)	93.3 µM (inactive)	43 µM (inactive)	> 100 µM (inactive)
C/C(=C\[C@H]1C[C@@H]([C@@H]2CC[C@]34C[C@]23C=C[C@@H]2[C@@]3(C)CC=C5C[C@@H](c6ccccc6)OC[C@]5(C)[C@@H]3C[C@@H](O)[C@]24C)C(=O)O1)CO [DICHAPETALIN A]	3.78 µM (inactive)	1.04 µM (active)	1.14 µM (inactive)	2.01 µM (inactive)	10.9 µM (inactive)	2.45 µM (inactive)	1.78 µM (inactive)	2.48 µM (inactive)	14.9 µM (inactive)	3.08 µM (inactive)	3.52 µM (inactive)	4.91 µM (inactive)	5.08 µM (inactive)	3.74 µM (inactive)	31.4 µM (inactive)	0.286 µM (active)	1.91 µM (inactive)	11.8 µM (inactive)	2.84 µM (inactive)	1.96 µM (inactive)
CCCCCCCCCCCCOC1C(COCCN2CCCC2)OC2OC(C)(C)OC21 (centres undefined)	1.66 µM (inactive)	1.86 µM (inactive)	1.75 µM (inactive)	1.55 µM (inactive)	1.76 µM (inactive)		1.71 µM (inactive)	1.76 µM (inactive)	2.56 µM (inactive)	1.73 µM (inactive)	1.62 µM (inactive)	1.64 µM (inactive)	1.76 µM (inactive)	1.72 µM (inactive)	1.71 µM (inactive)	1.6 µM (inactive)	1.82 µM (inactive)	2.94 µM (inactive)	2.07 µM (inactive)	1.75 µM (inactive)
Cc1nn(-c2ccccc2)c2c1C(c1cc3ccccc3nc1Cl)NC(=S)N2 (centres undefined)	47.4 µM (inactive)	31.9 µM (inactive)	36.1 µM (inactive)	44.9 µM (inactive)	37.7 µM (inactive)	30.7 µM (inactive)	38 µM (inactive)	29 µM (inactive)	> 100 µM (inactive)	46.3 µM (inactive)	54 µM (inactive)	27.9 µM (inactive)	24.8 µM (inactive)		14.5 µM (inactive)	58.6 µM (inactive)	78.3 µM (inactive)	57.3 µM (inactive)	> 100 µM (inactive)	> 100 µM (inactive)
COC(=O)NN(C(=O)OC)c1c(-c2ccccc2)nc(SC)n1N	> 100 µM (inactive)	> 100 µM (inactive)	> 100 µM (inactive)		> 100 µM (inactive)	> 100 µM (inactive)	> 100 µM (inactive)	> 100 µM (inactive)	> 100 µM (inactive)	> 100 µM (inactive)	> 100 µM (inactive)	> 100 µM (inactive)	> 100 µM (inactive)	> 100 µM (inactive)	> 100 µM (inactive)	> 100 µM (inactive)	> 100 µM (inactive)	> 100 µM (inactive)	> 100 µM (inactive)	> 100 µM (inactive)
NC(=O)NCCCC(NC(=O)OCCCCn1ccc(=O)[nH]c1=O)C(=O)O (centres undefined)	> 100 µM (inactive)	> 100 µM (inactive)	> 100 µM (inactive)	> 100 µM (inactive)	> 100 µM (inactive)	> 100 µM (inactive)	> 100 µM (inactive)	> 100 µM (inactive)	> 100 µM (inactive)	> 100 µM (inactive)	> 100 µM (inactive)	> 100 µM (inactive)	> 100 µM (inactive)	> 100 µM (inactive)	> 100 µM (inactive)		> 100 µM (inactive)	> 100 µM (inactive)	> 100 µM (inactive)	> 100 µM (inactive)
OC(/C(=N/c1ccccc1)c1ccccc1)c1ccccc1 (centres undefined)	2.68 µM (inactive)	3.32 µM (inactive)	5.37 µM (inactive)	5.22 µM (inactive)	2.29 µM (inactive)	2.72 µM (inactive)	5.62 µM (inactive)	2.75 µM (inactive)	10.8 µM (inactive)	23.5 µM (inactive)	2.66 µM (inactive)		11.3 µM (inactive)	2.66 µM (inactive)	2.26 µM (inactive)	2.07 µM (inactive)	10.7 µM (inactive)	6.52 µM (inactive)	5.62 µM (inactive)	2.17 µM (inactive)
O=C1NN=C(c2ccc(Cl)cc2)CC1C1C(=O)N(c2ccccc2)N=C1c1ccccc1 (centres undefined)	20 µM (inactive)	26.5 µM (inactive)	19.6 µM (inactive)	32.9 µM (inactive)	18.8 µM (inactive)	29 µM (inactive)	40.5 µM (inactive)	31.6 µM (inactive)	31.8 µM (inactive)	40.6 µM (inactive)	27.5 µM (inactive)	41.9 µM (inactive)	25.9 µM (inactive)	36.7 µM (inactive)	25.1 µM (inactive)	> 10 µM (inactive)	34.4 µM (inactive)	33.8 µM (inactive)	22.1 µM (inactive)	
